Source: US20260015337A1 (Trawsfynydd Therapeutics, Inc., priority 2022, published 2026)

Biological target: 3CL Protease (Severe acute respiratory syndrome coronavirus 2, UniProt P0DTD1)
Experiment: 3CL Protease enzymatic activity assay (BPS Bioscience Assay Kit #78043-1, fluorescence)
Format: biochemical, SARS-CoV-2
Conditions: Table A; 30 min preincubation, 40 μM substrate, 4 hours at room temperature; read-out: IC50, nM (3CL Protease enzymatic activity)
Summary of the method: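 SARS-CoV-2 3CL protease was preincubated with compound 30 min at room temperature in assay buffer with 1 mM DTT (≤1% DMSO), then 40 μM substrate added for 4 h at room temperature. Fluorescence at 360/460 nm, blank-subtracted; IC50 from % inhibition, with GC376 as inhibitor control.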

Compound | IC50 [nM]
CC(C)(C)[C@H](NC(=O)C(F)(F)F)C(=O)N1C[C@H]2[C@@H]([C@H]1C(=O)NC(C#N)Cc1cc3ccccc3[nH]c1=O)C2(C)C (stereo partly drawn) [Compound 182, (1R,2S,5S)-N-[1-cyano-2-(2-oxo-1H-quinolin-3-yl)ethyl]-3-[(2S)-3,3-dimethyl-2-[(2,2,2-trifluoroacetyl)amino]butanoyl]-6,6-dimethyl-3-azabicyclo[3.1.0]hexane-2-carboxamide] | < 50
Cc1ccc2[nH]c(=O)c(C[C@@H](C#N)N(C)C(=O)[C@@H]3[C@@H]4[C@H](CN3C(=O)[C@@H](NC(=O)C(F)(F)F)C(C)(C)C)C4(C)C)cc2c1 [Compound 183, (1R,2S,5S)-N-[(1S)-1-cyano-2-(6-methyl-2-oxo-1H-quinolin-3-yl)ethyl]-3-[(2S)-3,3-dimethyl-2-[(2,2,2-trifluoroacetyl)amino]butanoyl]-N,6,6-trimethyl-3-azabicyclo[3.1.0]hexane-2-carboxamide] | ≥ 1000
CC(C)(C)[C@H](NC(=O)C(F)(F)F)C(=O)N1C[C@H]2[C@@H]([C@H]1C(=O)N[C@H](C#N)Cc1nc3ccccc3[nH]c1=O)C2(C)C [Compound 185, (1R,2S,5S)—N-[(1S)-1-Cyano-2-(3-oxo-4H-quinoxalin-2-yl)ethyl]-3-[(2S)-3,3-dimethyl-2-[(2,2,2-trifluoroacetyl)amino]butanoyl]-6,6-dimethyl-3-azabicyclo[3.1.0]hexane-2-carboxamide] | < 50
CC(C)(C)[C@H](NC(=O)C(F)(F)F)C(=O)N1C[C@H]2[C@@H]([C@H]1C(=O)N[C@@H](C#N)Cc1nc3ccccc3[nH]c1=O)C2(C)C [Compound 186, (1R,2S,5S)—N-[(1R)-1-cyano-2-(3-oxo-4H-quinoxalin-2-yl)ethyl]-3-[(2S)-3,3-dimethyl-2-[(2,2,2-trifluoroacetyl)amino]butanoyl]-6,6-dimethyl-3-azabicyclo[3.1.0]hexane-2-carboxamide] | < 50
CN1c2ccccc2NC(=O)C1CC(C#N)NC(=O)[C@@H]1[C@@H]2[C@H](CN1C(=O)[C@@H](NC(=O)C(F)(F)F)C(C)(C)C)C2(C)C (stereo partly drawn) [Compound 187, (1R,2S,5S)—N-[1-Cyano-2-(1-methyl-3-oxo-2,4-dihydroquinoxalin-2-yl)ethyl]-3-[(2S)-3,3-dimethyl-2-[(2,2,2-trifluoroacetyl)amino]butanoyl]-6,6-dimethyl-3-azabicyclo[3.1.0]hexane-2-carboxamide] | ≥ 1000
CC(C)(C)[C@H](NS(C)(=O)=O)C(=O)N1C[C@H]2[C@@H]([C@H]1C(=O)N[C@H](C#N)Cc1cc3cnccc3[nH]c1=O)C2(C)C [Compound 188, (1R,2S,5S)—N—((S)-1-Cyano-2-(2-oxo-1,2-dihydro-1,6-naphthyridin-3-yl)ethyl)-3-((S)-3,3-dimethyl-2-(methylsulfonamido)butanoyl)-6,6-dimethyl-3-azabicyclo[3.1.0]hexane-2-carboxamide] | < 50
CC(C)(C)[C@H](NS(C)(=O)=O)C(=O)N1C[C@H]2[C@@H]([C@H]1C(=O)N[C@@H](C#N)Cc1cc3cnccc3[nH]c1=O)C2(C)C [Compound 189, (1R,2S,5S)—N—((R)-1-Cyano-2-(2-oxo-1,2-dihydro-1,6-naphthyridin-3-yl)ethyl)-3-((S)-3,3-dimethyl-2-(methylsulfonamido)butanoyl)-6,6-dimethyl-3-azabicyclo[3.1.0]hexane-2-carboxamide] | ≥ 1000
Cc1ccc2[nH]c(=O)c(C[C@@H](C#N)NC(=O)[C@@H]3[C@@H]4[C@H](CN3C(=O)Cc3cc(C(F)(F)F)n[nH]3)C4(C)C)cc2c1 [Compound 191, (1R,2S,5S)—N—((S)-1-Cyano-2-(6-methyl-2-oxo-1,2-dihydroquinolin-3-yl)ethyl)-6,6-dimethyl-3-(2-(3-(trifluoromethyl)-1H-pyrazol-5-yl)acetyl)-3-azabicyclo[3.1.0]hexane-2-carboxamide] | ≥ 1000
Cc1ccc2[nH]c(=O)c(C[C@@H](C#N)NC(=O)[C@@H]3[C@@H]4[C@H](CN3C(=O)Cc3cc(C)no3)C4(C)C)cc2c1 [Compound 192, (1R,2S,5S)—N—((S)-1-Cyano-2-(6-methyl-2-oxo-1,2-dihydroquinolin-3-yl)ethyl)-6,6-dimethyl-3-(2-(3-methylisoxazol-5-yl)acetyl)-3-azabicyclo[3.1.0]hexane-2-carboxamide] | ≥ 1000
Cc1ccc2[nH]c(=O)c(C[C@@H](C#N)NC(=O)[C@@H]3[C@@H]4[C@H](CN3C(=O)Cc3cc(C(F)(F)F)no3)C4(C)C)cc2c1 [Compound 193, (1R,2S,5S)—N—((S)-1-Cyano-2-(6-methyl-2-oxo-1,2-dihydroquinolin-3-yl)ethyl)-6,6-dimethyl-3-(2-(3-(trifluoromethyl)isoxazol-5-yl)acetyl)-3-azabicyclo[3.1.0]hexane-2-carboxamide] | ≥ 1000
Cc1ccc2[nH]c(=O)c(C[C@@H](C#N)NC(=O)[C@@H]3[C@@H]4[C@H](CN3C(=O)C(C)c3cc(C(F)(F)F)n[nH]3)C4(C)C)cc2c1 (stereo partly shown) [Compound 194] | ≥ 1000
Cc1ccc2[nH]c(=O)c(C[C@@H](C#N)NC(=O)[C@@H]3[C@@H]4[C@H](CN3C(=O)[C@@H](NS(=O)(=O)CC(F)(F)F)C(C)(C)C)C4(C)C)cc2c1 [Compound 195, (1R,2S,5S)—N—((S)-1-Cyano-2-(6-methyl-2-oxo-1,2-dihydroquinolin-3-yl)ethyl)-3-((S)-3,3-dimethyl-2-((2,2,2-trifluoroethyl)sulfonamido)butanoyl)-6,6-dimethyl-3-azabicyclo[3.1.0]hexane-2-carboxamide] | < 50
COc1cccc2oc(C(=O)N3C[C@H]4[C@@H]([C@H]3C(=O)N[C@H](C#N)Cc3cc5cc(C)ccc5[nH]c3=O)C4(C)C)cc12 [Compound 196, (1R,2S,5S)—N—((S)-1-Cyano-2-(6-methyl-2-oxo-1,2-dihydroquinolin-3-yl)ethyl)-3-(4-methoxybenzofuran-2-carbonyl)-6,6-dimethyl-3-azabicyclo[3.1.0]hexane-2-carboxamide] | ≥ 1000
Cc1ccc2[nH]c(=O)c(C[C@@H](C#N)NC(=O)C3C[C@H]4OCC[C@H]4N3C(=O)[C@@H](NC(=O)OCc3ccccc3)C(C)(C)C)cc2c1 (stereo partly drawn) [Compound 197, Benzyl ((2S)-1-((3aR,6aR)-5-(((S)-1-cyano-2-(6-methyl-2-oxo-1,2-dihydroquinolin-3-yl)ethyl)carbamoyl)hexahydro-4H-furo[3,2-b]pyrrol-4-yl)-3,3-dimethyl-1-oxobutan-2-yl)carbamate] | ≥ 1000
Cc1ccc2[nH]c(=O)c(C[C@@H](C#N)NC(=O)C3C[C@H]4OCC[C@H]4N3C(=O)[C@@H](NC(=O)C(F)(F)F)C(C)(C)C)cc2c1 (stereo partly drawn) [Compound 198, (3aR,6aR)—N—((S)-1-Cyano-2-(6-methyl-2-oxo-1,2-dihydroquinolin-3-yl)ethyl)-4-((S)-3,3-dimethyl-2-(2,2,2-trifluoroacetamido)butanoyl)hexahydro-2H-furo[3,2-b]pyrrole-5-carboxamide] | ≥ 1000
Cc1ccc2c(c1)CC(CC(C#N)NC(=O)[C@@H]1[C@@H]3[C@H](CN1C(=O)[C@@H](NC(=O)C(F)(F)F)C(C)(C)C)C3(C)C)C(=O)N2 (stereo partly drawn) [Compound 199, (1R,2S,5S)—N-[1-Cyano-2-(6-methyl-2-oxo-3,4-dihydro-1H-quinolin-3-yl)ethyl]-3-[(2S)-3,3-dimethyl-2-[(2,2,2-trifluoroacetyl)amino]butanoyl]-6,6-dimethyl-3-azabicyclo[3.1.0]hexane-2-carboxamide] | < 50
Cc1ccc2[nH]c(=O)c(CC(C#N)N(C)C(=O)[C@@H]3[C@H]4[C@H](CN3C(=O)[C@@H](NC(=O)C(F)(F)F)C(C)(C)C)C4(C)C)cc2c1 (stereo partly drawn) [Compound 205, (1S,2S,5S)-N-[1-cyano-2-(6-methyl-2-oxo-1H-quinolin-3-yl)ethyl]-3-[(2S)-3,3-dimethyl-2-[(2,2,2-trifluoroacetyl)amino]butanoyl]-N,6,6-trimethyl-3-azabicyclo[3.1.0]hexane-2-carboxamide] | ≥ 1000
Cc1ccc2[nH]c(=O)c(C[C@@H](C#N)NC(=O)[C@H](Cc3ccccc3)N(C)C(=O)[C@@H](NC(=O)C(F)(F)F)C(C)(C)C)cc2c1 [Compound 206, (2S)—N-[(1S)-1-benzyl-2-[[(1S)-1-cyano-2-(6-methyl-2-oxo-1H-quinolin-3-yl)ethyl]amino]-2-oxo-ethyl]-N,3,3-trimethyl-2-[(2,2,2-trifluoroacetyl)amino]butanamide] | ≥ 1000

Same assay, conditions: Table B; comparison with known compound K; read-out: IC50, nM (3CL Protease enzymatic activity, comparative data)

Compound | IC50 [nM]
CC(C)(C)[C@H](NC(=O)C(F)(F)F)C(=O)N1C[C@H]2[C@@H]([C@H]1C(=O)N[C@H](C#N)C[C@@H]1CCCNC1=O)C2(C)C [K, reference compound] | 1290
